Test results from patent US20250275949A1, “USE OF DITERPENE COMPOUND DERIVATIVE OR SALT THEREOF IN PREPARATION OF MEDICINE FOR PREVENTING AND TREATING ATOPIC DERMATITIS” (SUZHOU PHARMAVAN CO., LTD, priority 2022, published 2025).

Legend:
Type in all cases: in vivo, BALB/c mice
OXA-induced AD model [1] = assay: OXA-induced AD mouse model, Example 1 (eight compounds in castor oil); details: 0.1% in castor oil, day 7 to day 23; for OXA-induced AD-like lesions (conclusion of Example 1): auricle
Description: Experimental animals involved in the following embodiments were SPF-grade BALB/c mice (≥7 weeks old, female). The scoring criteria for skin lesions involved in the following embodiments are shown in Table 1 and the histopathological scoring criteria are shown in Table 2. [table] The day of grouping was defined as day 0. Mice were randomly divided into 11 groups: blank control (NC) group, model (OXA) group, blank castor oil (vehicle) group, Compound 1 administration group, Compound 2 administration group, Compound 3 administration group, Compound 4 administration group, Compound 5 administration group, Compound 6 administration group, Compound 7 administration group, and Compound 8 administration 10 group, with 5 animals in each group. Each group except NC group was treated for modeling AD. Day 0:0.8%-OXA solution was applied to the auricle of both ears at 20 μL per ear. Day 7, 10, 12, 14, 17, 19, 21, and 23:0.4%-OXA solution was applied to the auricle of both ears at 20 μL per ear. Each group except NC group and OXA group was administrated. The administration started from day 7 to day 23, and the mice was administrated once a day at the auricle of both ears by 50 μL per ear (100 μL per mouse). The condition of the animals was observed during the experimental period, and the auricle was scored for skin lesions (see Table 1 for skin lesion scoring criteria), and the thickness of the ears was measured. [table]

OXA-induced AD model [2] = assay: OXA-induced AD mouse model, Example 2 (Compound 1 cream; lesion score, ear thickness, immunohistochemistry, Western Blot); details: for right ear thickness on day 24 / skin lesion score on day 24: 50 μL per ear once a day, day 7 to day 23; for right ear thickness on day 24 / skin lesion score on day 24 / ICAM-1 positive rate, immunohistochemistry / Ki67 positive rate, immunohistochemistry / VCAM-1 positive rate, immunohistochemistry: vs vehicle group
Description: Experimental animals involved in the following embodiments were SPF-grade BALB/c mice (≥7 weeks old, female). The scoring criteria for skin lesions involved in the following embodiments are shown in Table 1 and the histopathological scoring criteria are shown in Table 2. [table] The day of grouping was defined as day 0. Mice were randomly divided into 5 groups: blank control (NC) group, model (OXA) group, blank cream (vehicle) group, 0.1%-Compound 1 cream group, and 0.5%-Compound 1 cream group; the NC group had 5 animals, the other groups each had 10 animals. Each group except NC group was treated for modeling AD. Day 0:0.8%-OXA solution was applied to the auricle of both ears at 20 μL per ear. Day 7, 10, 12, 14, 17, 19, 21, and 23:0.4%-OXA solution was applied to the auricle of both ears at 20 μL per ear. Each group except NC group and OXA group was administrated. The administration started from day 7 to day 23, and the mice was administrated once a day at the auricle of both ears by 50 μL per ear (100 μL per mouse). The condition of the animals was observed during the experimental period, and the auricle was scored for skin lesions (see Table 1 for skin lesion scoring criteria), and the thickness of the ears was measured. The mice were euthanized, and their ear tissues were retained for immunohistochemistry and Western Blot analysis. [table]

MC903-induced AD model [3] = assay: MC903-induced AD mouse model, Example 3 (ear swelling, skin thickness, mast cells, histopathology, serum IgE ELISA)
Description: Experimental animals involved in the following embodiments were SPF-grade BALB/c mice (≥7 weeks old, female). The scoring criteria for skin lesions involved in the following embodiments are shown in Table 1 and the histopathological scoring criteria are shown in Table 2. [table] This example explores the preventive and therapeutic effect of a small-molecule diterpene derivative on the MC903-induced AD model, including the following: • The day of grouping was defined as day 0. Mice were randomly divided into 5 groups: blank control (NC) group, model (MC903) group, blank cream (vehicle) group, 0.1%-Compound 1 cream group, and 0.5%-Compound 1 cream group; each group had 10 animals. Each group except NC group was treated for modeling AD. From day 0 to day 10:0.1 nmol/μL-MC903 solution was applied to the auricle of right ear at 20 μL once a day. Each group except NC group and MC903 group was administrated. The administration started from day 3 to day 10, and the mice was administrated once a day at the auricle of right ear by 50 μL. The condition of the animals was observed during the experimental period. The mice were euthanized, and their ear tissues were retained for the degree of ear swelling measurement, skin thickness measurement, mast cell counting and immunohistochemical analysis, and their blood tissues were retained for ELISA. [table]

MC903-induced AD model [4] = assay: MC903-induced AD mouse model, itching symptoms (scratching times), Example 4; details: cream 0.1% and 0.5%, right auricle, day 3 to day 10; video on the day before the experiment ended
Description: Experimental animals involved in the following embodiments were SPF-grade BALB/c mice (≥7 weeks old, female). This example explores the preventive and therapeutic effect of a small-molecule diterpene derivative to itching symptoms on the MC903-induced AD model, including the following: • The day of grouping was defined as day 0. Mice were randomly divided into 5 groups: blank control (NC) group, model (MC903) group, blank cream (vehicle) group, 0.1%-Compound 1 cream group, and 0.5%-Compound 1 cream group; each group had 10 animals. Each group except NC group was treated for modeling AD. From day 0 to day 10:0.1 nmol/μL-MC903solution was applied to the auricle of right ear at 20 μL once a day. Each group except NC group and MC903 group was administrated. The administration started from day 3 to day 10, and the mice was administrated once a day at the auricle of right ear by 50 μL. The administration method for modeling and the design of subject dosage are same as Example 3. On the day before the experiment ended, the mice were videoed, and the mice of AD model were evaluated through the video about their scratching times in 15 min.

[5] = 50 μL per ear on auricle once a day, compared with vehicle group
[6] = cream, 0.1% and 0.5% groups together
[7] = cream, 0.1% and 0.5%, ear tissue
[8] = cream 0.1% and 0.5%, right auricle, day 3 to day 10

C=C1C(=O)[C@@]23[C@H](O)C[C@@H]4C(C)(C)c5nc(NC)sc5C[C@@]4(C)[C@@H]2CC[C@@H]1[C@H]3O [Compound 3]
skin lesion score on day 24 (OXA-induced AD model [1]; [5]): do not exert a significant anti-atopic dermatitis effect

C=C1C(=O)[C@@]23[C@H](O)C[C@@H]4C(C)(C)c5nc(N(C(C)C)C(C)C)sc5C[C@@]4(C)[C@@H]2CC[C@@H]1[C@H]3O [Compound 7]
skin lesion score on day 24 (OXA-induced AD model [1]; [5]): effectively reduce the skin lesion score
OXA-induced AD-like lesions (conclusion of Example 1) (OXA-induced AD model [1]): significantly ameliorate the OXA-induced AD-like lesions

C=C1C(=O)[C@@]23[C@H](O)C[C@@H]4C(C)(C)c5nc(Nc6ccncc6)sc5C[C@@]4(C)[C@@H]2CC[C@@H]1[C@H]3O [Compound 8]
right ear thickness on day 24 (OXA-induced AD model [1]; [5]): Vehicle group>Compound 8 group
skin lesion score on day 24 (OXA-induced AD model [1]; [5]): do not exert a significant anti-atopic dermatitis effect

C=C1C(=O)[C@@]23[C@H](O)C[C@@H]4C(C)(C)c5nc(N)sc5C[C@@]4(C)[C@@H]2CC[C@@H]1[C@H]3O [Compound 2]
skin lesion score on day 24 (OXA-induced AD model [1]; [5]): do not exert a significant anti-atopic dermatitis effect

C=C1C(=O)[C@@]23[C@H](O)C[C@@H]4C(C)(C)c5nc(N(C)C)sc5C[C@@]4(C)[C@@H]2CC[C@@H]1[C@H]3O [Compound 1]
skin lesion score on day 24 (OXA-induced AD model [1]; [5]): effectively reduce the skin lesion score
OXA-induced AD-like lesions (conclusion of Example 1) (OXA-induced AD model [1]): significantly ameliorate the OXA-induced AD-like lesions
right ear thickness on day 24 (OXA-induced AD model [2]; 0.1% cream): statistically different from the vehicle group
skin lesion score on day 24 (OXA-induced AD model [2]; 0.1% cream): statistically different from the vehicle group
ICAM-1 positive rate, immunohistochemistry (OXA-induced AD model [2]; 0.1% cream, ear tissue): reduced
Ki67 positive rate, immunohistochemistry (OXA-induced AD model [2]; 0.1% cream, ear tissue): reduced (statistically different)
VCAM-1 positive rate, immunohistochemistry (OXA-induced AD model [2]; 0.1% cream, ear tissue): reduced
right ear thickness on day 24 (OXA-induced AD model [2]; 0.5% cream): statistically different from the vehicle group
skin lesion score on day 24 (OXA-induced AD model [2]; 0.5% cream): statistically different from the vehicle group
ICAM-1 positive rate, immunohistochemistry (OXA-induced AD model [2]; 0.5% cream, ear tissue): reduced
Ki67 positive rate, immunohistochemistry (OXA-induced AD model [2]; 0.5% cream, ear tissue): reduced (statistically different)
VCAM-1 positive rate, immunohistochemistry (OXA-induced AD model [2]; 0.5% cream, ear tissue): reduced
OXA-induced AD-like lesions (conclusion of Example 2) (OXA-induced AD model [2]; cream, 0.1% and 0.5%): significantly ameliorate the OXA-induced AD-like lesions
ear thickness (conclusion) (OXA-induced AD model [2]; [6]): effectively ameliorate the ear thickness
epidermal overproliferation (Ki67) and aberrant expression of adhesion factor (ICAM-1, VCAM-1), conclusion (OXA-induced AD model [2]; [6]): effectively inhibit the epidermal overproliferation and aberrant expression of adhesion factor
skin lesion score (conclusion) (OXA-induced AD model [2]; [6]): effectively reduce the skin lesion score
ICAM-1 protein expression (gray value), Western Blot (OXA-induced AD model [2]; [7]): consistent with the immunohistochemical results
VCAM-1 protein expression (gray value), Western Blot (OXA-induced AD model [2]; [7]): consistent with the immunohistochemical results
degree of ear swelling (MC903-induced AD model [3]; cream 0.1% and 0.5%, 50 μL on right auricle once a day, day 3 to day 10): effectively ameliorate the ear swelling
dermal thickness (ear histological scanning) (MC903-induced AD model [3]; [8]): effectively ameliorate the thickening of epidermis and dermis
epidermal thickness (ear histological scanning) (MC903-induced AD model [3]; [8]): effectively ameliorate the thickening of epidermis and dermis
histopathology scores (total, parakeratosis, epidermal defect, dermal papilla thickening, capillary proliferation, inflammatory infiltration), HE staining (MC903-induced AD model [3]; [8]): effectively ameliorates the extent of MC903-induced AD-like lesions
mast cell counting (toluidine blue staining of ear tissue sections) (MC903-induced AD model [3]; [8]): significantly reduces the number of mast cells
serum IgE concentration (ELISA) (MC903-induced AD model [3]; [8]): inhibits the serum IgE concentration
MC903-induced AD-like lesions (conclusion of Example 3) (MC903-induced AD model [3]; cream, 0.1% and 0.5%): significantly ameliorate the MC903-induced AD-like lesions
scratching times in 15 min (extent of itching) (MC903-induced AD model [4]): effectively ameliorates the extent of itching

C=C1C(=O)[C@@]23[C@H](O)C[C@@H]4C(C)(C)c5nc(N(CCC)CCC)sc5C[C@@]4(C)[C@@H]2CC[C@@H]1[C@H]3O [Compound 6]
skin lesion score on day 24 (OXA-induced AD model [1]; [5]): effectively reduce the skin lesion score
OXA-induced AD-like lesions (conclusion of Example 1) (OXA-induced AD model [1]): significantly ameliorate the OXA-induced AD-like lesions

C=C1C(=O)[C@@]23[C@H](O)C[C@@H]4C(C)(C)c5nc(N(CC)CC)sc5C[C@@]4(C)[C@@H]2CC[C@@H]1[C@H]3O [Compound 5]
skin lesion score on day 24 (OXA-induced AD model [1]; [5]): effectively reduce the skin lesion score
OXA-induced AD-like lesions (conclusion of Example 1) (OXA-induced AD model [1]): significantly ameliorate the OXA-induced AD-like lesions

C=C1C(=O)[C@@]23[C@H](O)C[C@@H]4C(C)(C)c5nc(NCC)sc5C[C@@]4(C)[C@@H]2CC[C@@H]1[C@H]3O [Compound 4]
skin lesion score on day 24 (OXA-induced AD model [1]; [5]): do not exert a significant anti-atopic dermatitis effect
